Measured values from ChEMBL document CHEMBL1221212, “Small-molecule activation of neuronal cell fate” (Nat Chem Biol, 2008).
The source made the active and inactive calls. The rule behind the calls is not given here.

Columns and labels:
[1] = test system: HCN; assay: Induction of rat HCN cell differentiation assessed as induction of neuronal reporter neuroD activity by luciferase reporter gene assay; assay type: functional, cell-based
[2] = test system: P19CL6; assay: Induction of mouse C57BL/6 P19CL6 cell differentiation assessed as induction of neuronal reporter neuroD activity by luciferase reporter gene assay; assay type: functional, cell-based
[3] = test system: HCN; assay: Induction of rat HCN cell differentiation assessed as increase in Tuj1 gene expression after 3 hrs by RT-PCR analysis; assay type: functional, cell-based
[4] = test system: HCN; assay: Induction of L-type calcium channel/NMDA receptor-mediated Ca2+ influx in rat HCN cells in presence multiple inhibitors; assay type: cell-based
[5] = test system: HCN; assay: Induction of rat HCN cell differentiation assessed as increase in NR1 gene expression after 3 hrs by RT-PCR analysis; assay type: functional, cell-based
[6] = test system: HCN; assay: Effect on subcellular distribution of MEF2A protein in rat HCN cells after 5 days; assay type: functional, cell-based
[7] = molecular target: T1, Glutamate NMDA receptor (Rattus norvegicus) (UniProt P35439+Q00959+Q00960+Q00961+Q62645+Q8VHN2+Q9R1M7); assay: Induction of NMDA receptor-mediated Ca2+ influx in rat HCN cells in presence of NMDA receptor antagonist MK801; assay type: functional, cell-based
[8] = Induction of rat HCN cell proliferation at 20 uM after 20 days by BrdU incorporation assay; assay type: functional
[9] = test system: HCN; assay: Induction of rat HCN cell differentiation assessed as increase in neuroD gene expression after 3 hrs by RT-PCR analysis; assay type: functional, cell-based
[10] = test system: HCN; assay: Induction of rat HCN cell differentiation assessed as increase in neuroD gene expression after 3 days by RT-PCR analysis; assay type: functional, cell-based
[11] = test system: HCN; assay: Induction of rat HCN cell differentiation assessed as increase in GluR2 gene expression after 3 hrs by RT-PCR analysis; assay type: functional, cell-based
[12] = test system: HCN; assay: Induction of rat HCN cell differentiation assessed as increase in NR1 gene expression after 1 day by RT-PCR analysis; assay type: functional, cell-based
[13] = test system: HCN; assay: Induction of L-type calcium channel/NMDA receptor-mediated Ca2+ influx in rat HCN cells at 5 uM by Fura-2 imaging analysis; assay type: cell-based
[14] = test system: HCN; assay: Induction of neurogenesis in undifferentiated rat HCN cells assessed as GlR2/3 protein level at 8 to 64 uM after 9 hrs by protein blotting analysis; assay type: functional, cell-based
[15] = test system: HCN; assay: Induction of rat HCN cell differentiation assessed as increase in Tuj1 gene expression after 3 days by RT-PCR analysis; assay type: functional, cell-based
[16] = test system: HCN; assay: Induction of HDAC5 translocation in nucleus of rat HCN cells assessed as GFP-HDAC5 S258A S498A mutant fusion protein accumulation at 5 uM by fluorescence assay; assay type: functional, cell-based
[17] = test system: HCN; assay: Induction of rat HCN cell differentiation assessed as increase in GluR2 gene expression after 3 days by RT-PCR analysis; assay type: functional, cell-based
[18] = test system: HCN; assay: Induction of CAMK-mediated MREx3 activity in rat HCN cells by luciferase reporter gene assay in presence of 2.5 uM CAMK inhibitor KN93; assay type: cell-based
[19] = test system: HCN; assay: Effect on subcellular distribution of MEF2C protein in rat HCN cells after 5 days; assay type: functional, cell-based
[20] = test system: HCN; assay: Induction of rat HCN cell differentiation assessed as increase in Tuj1 gene expression after 1 day by RT-PCR analysis; assay type: functional, cell-based
[21] = test system: HCN; assay: Induction of rat HCN cell differentiation assessed as induction of induction of MREx3 gene expression by luciferase reporter gene assay; assay type: functional, cell-based
[22] = test system: HCN; assay: Induction of LIF/BMP2-mediated rat HCN cell differentiation into GFAP-positive astrocytes after 4 days; assay type: functional, cell-based
[23] = test system: HCN; assay: Induction of neurogenesis in undifferentiated rat HCN cells assessed as MAP2AB protein level at 8 to 64 uM after 9 hrs by protein blotting analysis; assay type: functional, cell-based
[24] = test system: Neuronal progenitor cell; assay: Induction of mouse progenitor cell differentiation into Tuj1 neurons at 20 uM after 4 days; assay type: functional, cell-based
[25] = test system: HCN; assay: Induction of rat HCN cell differentiation assessed as increase in p27Kip1 gene expression after 9 days by RT-PCR analysis; assay type: functional, cell-based
[26] = test system: HCN; assay: Induction of L-type calcium channel/NMDA receptor-mediated neuroD gene expression in rat HCN cells at 50 uM after 3 hrs by RT-PCR analysis in presence of multiple inhibitors; assay type: cell-based
[27] = test system: HCN; assay: Induction of CAMK2 phosphorylation in rat HCN cells by Western blot analysis in presence of 2.5 uM CAMK inhibitor KN93; assay type: cell-based
[28] = test system: HCN; assay: Induction of CAMK-mediated HDAC5 phosphorylation in rat HCN cells by Western blot analysis in presence of 2.5 uM CAMK inhibitor KN93; assay type: cell-based
[29] = test system: HCN; assay: Induction of LIF/BMP2-mediated rat HCN cell differentiation into Tuj1 neurons after 4 days; assay type: functional, cell-based
[30] = test system: HCN; assay: Inhibition of LIF/BMP2-mediated rat HCN cell differentiation into astrocytes at 25 uM; assay type: functional, cell-based
[31] = test system: HCN; assay: Induction of HDAC5 translocation in nucleus of rat HCN cells assessed as GFP-HDAC5 fusion protein accumulation at 20 uM by fluorescence assay; assay type: functional, cell-based
[32] = test system: HCN; assay: Induction of CAMK-mediated MREx3 activity in rat HCN cells by luciferase reporter gene assay in presence of 200 nM PKC inhibitor Go6976; assay type: cell-based
[33] = test system: P19CL6; assay: Induction of C57BL/6 mouse P19CL6 cell differentiation at 50 uM after 4 days; assay type: functional, cell-based
[34] = Induction of rat HCN cell differentiation assessed as upregulation of MEF2C expression after 2 to 4 days by protein blotting analysis; assay type: functional, cell-based
[35] = molecular target: T1, Glutamate NMDA receptor (Rattus norvegicus); assay: Induction of NMDA receptor-mediated neuroD gene expression in rat HCN cells at 50 uM after 3 hrs by RT-PCR analysis in presence of NMDA receptor antagonist MK801; assay type: functional, cell-based
[36] = test system: HCN; assay: Induction of rat HCN cell differentiation assessed as increase in neuroD gene expression at 10 uM after 3 hrs by RT-PCR analysis; assay type: functional, cell-based
[37] = test system: HCN; assay: Induction of rat HCN cell differentiation assessed as increase in GluR2 gene expression after 1 day by RT-PCR analysis; assay type: functional, cell-based
[38] = molecular target: T1, Glutamate NMDA receptor (Rattus norvegicus); assay: Induction of NMDA receptor-mediated neuroD gene expression in rat HCN cells at 50 uM after 3 hrs by RT-PCR analysis in presence of NMDA receptor antagonist nifedipine; assay type: functional, cell-based
[39] = Cytotoxicity in rat HCN cells at 20 uM after 4 days; assay type: cell-based; details: 96 h
[40] = molecular target: T1, Glutamate NMDA receptor (Rattus norvegicus); assay: Induction of NMDA receptor-mediated neuroD gene expression in rat HCN cells at 50 uM after 24 hrs by RT-PCR analysis in presence of NMDA receptor antagonist nifedipine; assay type: functional, cell-based
[41] = test system: HCN; assay: Induction of rat HCN cell differentiation into Tuj1 neurons at 20 uM after 4 days in presence of caspase inhibitor Q-VD-Oph; assay type: functional, cell-based
[42] = molecular target: T1, Glutamate NMDA receptor (Rattus norvegicus); assay: Induction of NMDA receptor-mediated neuroD gene expression in rat HCN cells at 50 uM after 24 hrs by RT-PCR analysis in presence of NMDA receptor antagonist MK801; assay type: functional, cell-based
[43] = test system: HCN; assay: Induction of CAMK-mediated MREx3 activity in rat HCN cells by luciferase reporter gene assay in presence of 2.5 uM potassium channel inhibitor KN92; assay type: cell-based
[44] = Induction of rat HCN cell differentiation assessed as upregulation of MEF2A expression after 2 to 4 days by protein blotting analysis; assay type: functional, cell-based
[45] = test system: P19CL6; assay: Induction of mouse C57BL/6 P19CL6 cell differentiation assessed as induction of neuronal reporter gluR2 expression by luciferase reporter gene assay; assay type: functional, cell-based
[46] = test system: HCN; assay: Inhibition of gliogenesis differentiation in rat HCN cells at 25 uM after 4 days; assay type: functional, cell-based
[47] = test system: HCN; assay: Induction of rat HCN cell differentiation assessed as induction of neuronal reporter neuroD activity at 20 uM after 24 hrs by luciferase reporter gene assay; assay type: functional, cell-based
[48] = molecular target: T1, Glutamate NMDA receptor (Rattus norvegicus); assay: Induction of NMDA receptor-mediated Ca2+ influx in rat HCN cells at 5 uM by Fura-2 imaging analysis in presence of NMDA receptor antagonist MK801; assay type: functional, cell-based
[49] = test system: HCN; assay: Induction of rat HCN cell differentiation assessed as increase in beta-TUB3 gene expression after 9 days by RT-PCR analysis; assay type: functional, cell-based
[50] = test system: HCN; assay: Induction of neurogenesis in undifferentiated rat HCN cells assessed as MEF2C protein level at 8 to 64 uM after 9 hrs by protein blotting analysis; assay type: functional, cell-based
[51] = test system: HCN; assay: Induction of L-type calcium channel/NMDA receptor-mediated Ca2+ influx in rat HCN cells; assay type: cell-based
[52] = test system: HCN; assay: Induction of rat HCN cell differentiation assessed as increase in DCX gene expression after 9 days by RT-PCR analysis; assay type: functional, cell-based
[53] = test system: Neuronal progenitor cell; assay: Induction of mouse neuronal progenitor cell differentiation at 25 uM after 4 days; assay type: functional, cell-based
[54] = test system: HCN; assay: Induction of L-type calcium channel/NMDA receptor-mediated Ca2+ influx in rat HCN cells at 5 uM by Fura-2 imaging analysis in presence of multiple of inhibitors; assay type: cell-based
[55] = test system: Neuronal progenitor cell; assay: Induction of mouse progenitor cell differentiation into Map2ab-positive neurons at 20 uM after 4 days; assay type: functional, cell-based
[56] = test system: HCN; assay: Induction of rat HCN cell differentiation assessed as increase in neuroD gene expression after 1 day by RT-PCR analysis; assay type: functional, cell-based
[57] = test system: HCN; assay: Induction of rat HCN cell differentiation assessed as increase in NR1 gene expression after 3 days by RT-PCR analysis; assay type: functional, cell-based
[58] = test system: HCN; assay: Induction of HDAC5 phosphorylation in rat HCN cells after 6 hrs; assay type: functional, cell-based
[59] = test system: HCN; assay: Induction of neurogenesis in undifferentiated rat HCN cells assessed as MEF2A protein level at 8 to 64 uM after 9 hrs by protein blotting analysis; assay type: functional, cell-based
[60] = test system: HCN; assay: Induction of rat HCN cell differentiation assessed as increase in MAP2AB gene expression after 9 days by RT-PCR analysis; assay type: functional, cell-based
[61] = test system: HCN; assay: Induction of L-type calcium channel/NMDA receptor-mediated neuroD gene expression in rat HCN cells at 50 uM after 24 hrs by RT-PCR analysis in presence of multiple inhibitors; assay type: cell-based
[62] = test system: HCN; assay: Induction of HDAC5 translocation in cytoplasm of rat HCN cells assessed as phosphorylated HDAC5 accumulation; assay type: functional, cell-based
[63] = test system: HCN; assay: Induction of HDAC5 phosphorylation in rat HCN cells after 24 hrs; assay type: functional, cell-based
[64] = Induction of rat HCN cell differentiation assessed as upregulation of MEF2D expression after 2 to 4 days by protein blotting analysis; assay type: functional, cell-based
[65] = species: Rattus norvegicus; assay: Induction of rat HCN differentiation into Tuj1 neurons at 25 uM after 4 days; assay type: functional
[66] = test system: HCN; assay: Effect on subcellular distribution of CREB protein in rat HCN cells after 5 days; assay type: functional, cell-based

O=C(NC1CCCC1)c1cc(-c2ccco2)on1
Activity [1]: Dose-dependent effect
Activity [2]: Dose-dependent effect

O=C(NC1CC1)c1cc(-c2cccs2)on1
Activity [3]: Active
Activity [4]: Active
Activity [5]: Active
Activity [6]: inactive
Activity [7]: Active
Activity [1]: Dose-dependent effect
Activity [8]: 40%
Activity [9]: Active
Activity [10]: Active
Activity [11]: Active
Activity [12]: Active
Activity [13]: Active
Activity [14]: Active
Activity [15]: Active
Activity [16]: Active
Activity [17]: Active
Activity [18]: inactive
Activity [19]: inactive
Activity [20]: Active
Activity [21]: Dose-dependent effect
inhibition [22]: Active
Activity [23]: Active
Activity [24]: Active
Activity [25]: Active
Activity [26]: Active
Activity [27]: inactive
Activity [28]: inactive
Activity [29]: Active
inhibition [30]: Active
Activity [31]: Active
Activity [32]: Active
Activity [33]: Active
Activity [34]: Active
Activity [35]: Active
Activity [36]: Active
Activity [37]: Active
Activity [38]: Active
Activity [39]: 18%
Activity [40]: Active
Activity [41]: Active
Activity [42]: Active
Activity [43]: Active
Activity [44]: inactive
Activity [45]: Dose-dependent effect
inhibition [46]: Active
Activity [47]: Active
Activity [48]: Active
Activity [49]: Active
Activity [50]: inactive
Activity [51]: Active
Activity [52]: Active
Activity [53]: Active
Activity [54]: Active
Activity [55]: Active
Activity [56]: Active
Activity [57]: Active
Activity [58]: Active
Activity [59]: inactive
Activity [60]: Active
Activity [61]: Active
Activity [62]: Active
Activity [63]: Active
Activity [64]: Active
Activity [65]: Active
Activity [66]: inactive

C=CCNC(=O)c1cc(-c2cccs2)on1
Activity [2]: Dose-dependent effect

O=C(NC1CCC1)c1cc(-c2cccs2)on1
Activity [47]: Active
